# From patent US5750362A, “Methods for identifying substances with a potential herbicidal or growth-regulating action by means of plant transporter proteins, the use of the transporter proteins, and substances with a herbicidal and growth-regulating action” (BASF Aktiengesellschaft, priority 1993, dated 1998)
# Key:
# [1] = target: T1, sucrose transporter P62 (StSUT1) (Solanum tuberosum, UniProt Q43653); assay: [14C]-sucrose uptake by yeast strain SUSY-7-P62 (StSUT1) expressing the potato sucrose transporter; assay type: cell-based; settings: [14C]-sucrose uptake, pH 3.8, read-out: Activity relative to the control [%]
# T1 construct: whole-cell [14C]-sucrose uptake; no tag or borders given
# T1 sequence (Q43653 1-516): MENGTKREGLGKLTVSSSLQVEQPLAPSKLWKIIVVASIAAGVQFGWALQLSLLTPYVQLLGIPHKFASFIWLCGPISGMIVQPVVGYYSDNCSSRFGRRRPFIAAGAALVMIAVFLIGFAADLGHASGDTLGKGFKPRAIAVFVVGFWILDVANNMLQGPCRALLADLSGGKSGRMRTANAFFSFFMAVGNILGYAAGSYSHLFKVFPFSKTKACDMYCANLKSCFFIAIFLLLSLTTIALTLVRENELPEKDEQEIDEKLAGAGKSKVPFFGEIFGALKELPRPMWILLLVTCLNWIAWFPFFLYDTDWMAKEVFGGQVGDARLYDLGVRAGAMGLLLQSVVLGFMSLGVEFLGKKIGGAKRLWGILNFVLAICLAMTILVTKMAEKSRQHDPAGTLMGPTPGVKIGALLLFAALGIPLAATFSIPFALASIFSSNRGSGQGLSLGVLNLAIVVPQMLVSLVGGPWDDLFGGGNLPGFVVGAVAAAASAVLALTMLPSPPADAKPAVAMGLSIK
# In short: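 SUSY7 yeast expressing potato StSUT1, log-phase cells at 50 g/l wet weight, glucose-energised, pH 3.8. Test substances added 30 s before 0.2 mmol/l [14C]-sucrose solution; uptake sampled 20–240 s by filtration and scintillation, expressed as percent of uninhibited control; untransformed SUSY7 as further control.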
# sucrose transporters = settings: Bush, 1989, Plant Physiol. 89: 1318-1323; result in words; cited from earlier work
# [2] = target: T2, ammonium transporter AMT1 (Arabidopsis thaliana, UniProt P54144); assay: cell-based; settings: pH 7; [14C]-methylamine uptake; tested substance 10 μM; read-out: Activity relative to the control [%]
# T2 construct: expressed in transfected cells; host or cells: Saccharomyces cerevisiae 26972c (mutations in MEP1 and MEP2)
# T2 sequence (P54144 1-501): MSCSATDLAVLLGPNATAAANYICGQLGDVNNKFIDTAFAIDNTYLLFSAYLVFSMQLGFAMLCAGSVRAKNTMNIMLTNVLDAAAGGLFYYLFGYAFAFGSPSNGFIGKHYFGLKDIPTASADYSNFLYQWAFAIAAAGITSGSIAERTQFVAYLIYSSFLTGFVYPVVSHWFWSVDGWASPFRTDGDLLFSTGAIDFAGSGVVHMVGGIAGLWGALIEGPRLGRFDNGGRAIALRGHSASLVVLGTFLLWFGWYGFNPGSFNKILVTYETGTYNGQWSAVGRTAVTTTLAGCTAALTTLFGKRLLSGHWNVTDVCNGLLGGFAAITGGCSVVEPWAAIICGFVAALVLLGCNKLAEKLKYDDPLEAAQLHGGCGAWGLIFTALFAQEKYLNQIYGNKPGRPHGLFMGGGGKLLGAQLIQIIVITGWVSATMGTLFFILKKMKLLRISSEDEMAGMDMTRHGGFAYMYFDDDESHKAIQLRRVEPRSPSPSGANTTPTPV
# Method: The measurements of transport identify inhibitors of plant ammonium transporters are carried out with the structural analog methylamine because radiolabeled ammonium is not commercially obtainable.
# The yeast cells are transformed by standard methods with cDNA sequences which code for an ammonium transporter from plants and which permit expression of a functional transporter in the yeast cells. […] The cells are cultured in NAAG-medium (2% glucose, 1.7 g/l yeast nitrogen-base w/o amino acids and ammonium sulfate (Difco), supplemented with 500 μg/ml L-proline) at 28 degrees Celsius, and harvested in the logarithmic phase (OD660.=0.6). The cells are then spun down in a centrifuge at 4000 rpm and 4 degrees Celsius for 10 minutes, washed twice with 20 mM sodium phosphate buffer, pH 7, and taken up in the same buffer to an 0D660 of 8. 200 μl aliquot fractions of the cell suspension are taken. 5 minutes before the actual measurement,the yeasts are activated by addition of 100 mM glucose and incubated at 30 degrees Celsius. To start the reaction, 100 μl of the cell suspension are added to 100 µl of reaction mixture (20 mM Na phosphate buffer, pH7; 18.5 kBq of [^14 C]-methylamine (NEN); 100 M methylamine; substance to be tested depending on the experiment (see FIG. 4)). In each case 10, 60, 120 and 180 seconds after starting the reaction, 50 μl aliquots are taken, added to 4 ml of ice-cold 5 mM methylamine solution and filtered on glass fibre filters. After the filters have been washed with a further 8 ml of a methylamine solution, the radioactivity on the filters is subsequently determined in a liquid scintillation counter. Inhibitors are added 60 seconds before adding the glucose.
# The uptake of radiolabeled methylamine without addition of a potential inhibitor is determined as one control.
# The various tested substances, their concentration and the activity of the transporter, shown as percentage activity of the control in which no potential inhibitors were added, are indicated.
SMILES,remaining activity at 500 µM ([1]; tested substance 0.5 mM) [%],Inhibition of sucrose transport (sucrose transporters),remaining activity at 10 µM ([1]; tested substance 10 μM) [%],remaining activity at 10 µM [2] [%]
"CCOC(=O)OC(=O)OCC [DEPC, diethyl pyrocarbonate]",6,highly effective transport inhibitors,,
N#CC(C#N)=NNc1cccc(Cl)c1 [CCCP],,,9,40
